Target: T1, Full-length glucokinase (beta cell isoform) (Homo sapiens, UniProt P35557)
T1 construct: Full-length glucokinase (beta cell isoform) was His-tagged at N-terminus; His tag (N); made in house
T1 sequence (P35557 1-465): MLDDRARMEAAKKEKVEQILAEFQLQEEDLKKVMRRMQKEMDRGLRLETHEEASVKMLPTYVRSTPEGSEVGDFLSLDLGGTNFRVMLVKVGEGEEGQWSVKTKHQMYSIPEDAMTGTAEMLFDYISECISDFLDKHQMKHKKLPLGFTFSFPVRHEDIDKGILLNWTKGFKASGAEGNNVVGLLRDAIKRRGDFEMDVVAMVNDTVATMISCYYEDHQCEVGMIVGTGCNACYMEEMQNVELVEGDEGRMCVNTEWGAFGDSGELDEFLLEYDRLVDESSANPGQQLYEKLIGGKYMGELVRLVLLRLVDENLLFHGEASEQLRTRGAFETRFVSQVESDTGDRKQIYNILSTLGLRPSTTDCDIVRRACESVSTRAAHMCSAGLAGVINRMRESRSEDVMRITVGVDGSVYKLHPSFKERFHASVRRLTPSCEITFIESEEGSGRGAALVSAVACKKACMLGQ
Assay: Glucokinase biochemical assay (PK/LDH-coupled, NADH depletion at 340 nm): % activation, EC50, % max activation
Settings: 5 mM glucose; for activation at 10 µM: 10 uM compound, % Activation=(Va/Vo−1)×100, read-out: % Activation at 10 uM; for EC50: GK activation, read-out: EC50; for Emax: fitted maximum activation, read-out: % Max Activation
In short: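 N-terminally His-tagged full-length human beta-cell glucokinase, room temperature, 5 mM glucose, 1 mM ATP, PK/LDH-coupled with 0.7 mM NADH, 1% DMSO final. Initial velocity from the 200–900 s slope of A340 decline. % activation = (Va/Vo−1)×100, measured across compound concentrations.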

| activation at 10 µM | EC50 | Emax | Compound |
| --- | --- | --- | --- |
| 249% | 2100 nM | 285% | Cn1ccc(NC(=O)c2cc3c(c(Oc4ccc(S(C)(=O)=O)cc4)c2F)CC(C)(C)O3)n1 [Example 192, 5-Fluoro-4-(4-methanesulfonyl-phenoxy)-2,2-dimethyl-2,3-dihydro-benzofuran-6-carboxylic acid (1-methyl-1H-pyrazol-3-yl)-amide] |
| 69.2% | 1500 nM | 89% | C=C(C)c1cc2c(C(=O)Nc3ccc(C)cn3)cc(OC(C)C)cc2o1 [Example 346, 6-Isopropoxy-N-(5-methylpyridin-2-yl)-2-(prop-1-en-2-yl)benzofuran-4-carboxamide] |
| 149% | 1800 nM | 134% | CCc1nc(O)cc(COc2cc(C(=O)Nc3ccn(C)n3)cc3c2CC(C)(C)O3)n1 [Example 104, 4-(2-Ethyl-6-hydroxy-pyrimidin-4-ylmethoxy)-2,2-dimethyl-2,3-dihydro-benzofuran-6-carboxylic acid (1-methyl-1H-pyrazol-3-yl)-amide] |
| 157% | 840 nM | 146% | COc1cnc(NC(=O)c2cc(Oc3ccc(S(C)(=O)=O)cc3)c3cc(C)oc3c2)cn1 [Example 263, N-(5-methoxypyrazin-2-yl)-2-methyl-4-(4-(methylsulfonyl)-phenoxy)-benzofuran-6-carboxamide] |
| 150% | 570 nM | 146% | Cn1ccc(NC(=O)c2cc(Oc3ccc(C(=O)N4CC(O)C4)cc3F)c3c(c2)OC(C)(C)C3)n1 [Example 45, 4-[2-Fluoro-4-(3-hydroxy-azetidine-1-carbonyl)-phenoxy]-2,2-dimethyl-2,3-dihydro-benzofuran-6-carboxylic acid(1-methyl-1H-pyrazol-3-yl)-amide] |
| 98.9% | > 10000 nM | – | CC(=O)N1CC(Oc2cc(C(=O)Nc3cnn(C)n3)cc3c2CC(C)(C)O3)C1 [Example 195, 4-(1-Acetyl-azetidin-3-yloxy)-2,2-dimethyl-2,3-dihydro-benzofuran-6-carboxylic acid (2-methyl-2H-[1,2,3]triazol-4-yl)-amide] |
| 35.5% | – | – | Cc1ccc(NC(=O)c2cc(Oc3ccc(S(C)(=O)=O)cc3)c3ncsc3c2)nc1 [Example 371, N-(5-Methylpyridin-2-yl)-4-[4-(methylsulfonyl)phenoxy]-1,3-benzothiazole-6-carboxamide] |
| 239% | 97 nM | 257% | CCS(=O)(=O)c1ccc(Oc2cc(C(=O)Nc3cnn(C)n3)cc3c2CC(C)(C)O3)cc1F [Example 135, 4-(4-Ethanesulfonyl-3-fluoro-phenoxy)-2,2-dimethyl-2,3-dihydro-benzofuran-6-carboxylic acid (2-methyl-2H-[1,2,3]triazol-4-yl)-amide] |
| 90.7% | 850 nM | 98% | CN(C)C(=O)c1ccc(Oc2cc(C(=O)Nc3cc[nH]n3)cc3c2CC(C)(C)O3)cc1 [Example 152, 4-(4-Dimethylcarbamoyl-phenoxy)-2,2-dimethyl-2,3-dihydro-benzofuran-6-carboxylic acid (1H-pyrazol-3-yl)-amide] |

| Compound | activation at 10 µM | EC50 | Emax |
| --- | --- | --- | --- |
| CC(C)COc1cc(C(=O)Nc2ccc(C(=O)O)cn2)cc2c1CC(C)(C)O2 [Example 14, 6-[(4-Isobutoxy-2,2-dimethyl-2,3-dihydro-benzofuran-6-carbonyl)-amino]-nicotinic acid] | 167% | 1300 nM | 115% |

Reference: patent US8119624B2, “Fused phenyl amido heterocyclic compounds” (Pfizer Inc., priority 2006, dated 2012)
